Target: T1, CDK8 (Homo sapiens (Human), UniProt P49336)
Test: LanthaScreen Eu Kinase Binding Assay (competitive kinase binding assay)
Settings: Targeting Ligands of Table 1; displacing the Tracer from the target kinase; read-out: Enzyme IC50
Description: The biological activities of the compounds of the present application can be assessed through a variety of methods known in the art. For example, a kinase competitive binding assay may be used to determine the activity of the compounds of the present application to bind to […]. […] The changes in the signal produced by the reporting ligand when the compound is present relative when the compound is absent are recorded, which are calculated to provide the IC50 of the compound. Compounds of the present application were tested in a competitive kinase binding assay by using commercially available assay system. For example, LanthaScreen® Eu Kinase Binding Assay (Invitrogen™) was used to measure the IC50 of the compounds of the present application in displacing the Tracer from binding to the target kinase, by following the assay protocol from Invitrogen™.
Target sequence in this assay (P49336 whole entry, looked up): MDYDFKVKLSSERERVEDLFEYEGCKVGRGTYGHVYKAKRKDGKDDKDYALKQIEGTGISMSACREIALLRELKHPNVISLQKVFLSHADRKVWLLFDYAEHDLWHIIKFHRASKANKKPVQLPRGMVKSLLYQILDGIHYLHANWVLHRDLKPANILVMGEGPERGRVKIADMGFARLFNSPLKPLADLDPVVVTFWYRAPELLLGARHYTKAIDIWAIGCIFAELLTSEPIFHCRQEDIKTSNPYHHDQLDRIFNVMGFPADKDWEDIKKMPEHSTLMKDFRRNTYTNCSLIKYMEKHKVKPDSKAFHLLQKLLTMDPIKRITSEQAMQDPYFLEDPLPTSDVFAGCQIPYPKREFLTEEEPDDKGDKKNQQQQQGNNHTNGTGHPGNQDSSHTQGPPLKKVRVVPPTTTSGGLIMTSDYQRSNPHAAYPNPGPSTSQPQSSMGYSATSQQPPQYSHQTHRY
Target sequence in this assay (P24863 whole entry partner, looked up): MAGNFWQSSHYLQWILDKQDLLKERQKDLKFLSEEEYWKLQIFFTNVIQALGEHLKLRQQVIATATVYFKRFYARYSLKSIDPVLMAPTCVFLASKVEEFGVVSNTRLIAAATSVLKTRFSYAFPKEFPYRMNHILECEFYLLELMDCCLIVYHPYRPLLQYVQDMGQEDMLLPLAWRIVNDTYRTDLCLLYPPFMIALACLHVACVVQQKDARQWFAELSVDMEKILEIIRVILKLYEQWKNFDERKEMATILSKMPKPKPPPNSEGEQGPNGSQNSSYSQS

`CN(C)[C@H]1CC[C@@]2(C)C(=CCC3[C@@H]4CC[C@H](c5ccc6ccncc6c5)[C@@]4(C)CC[C@@H]32)C1` (stereo in doubt) [Compound 33, (3S,8R,9S,10R,13S,14S)-17-(isoquinolin-7-yl)-N,N,10,13-tetramethyl-2,3,4,7,8,9,10,11,12,13,14,15,16,17-tetradecahydro-1H-cyclopenta[a]phenanthren-3-amine] and `C[C@]12CC[C@H]3[C@@H](CC=C4C[C@@H](O)CC[C@@]43C)[C@@H]1CC[C@@H]2c1ccc2ccncc2c1` [Compound 8a, (3S,8S,9S,10R,13S,14S,17S)-17-(isoquinolin-7-yl)-10,13-dimethyl-2,3,4,7,8,9,10,11,12,13,14,15,16,17-tetradecahydro-1H-cyclopenta[a]phenanthren-3-ol] cannot be ordered by IC50: less than 100 nM for the first, less than 100 nM for the second.

First: C[C@]12CC[C@H](O)CC1=CC[C@@H]1[C@@H]2CC[C@]2(C)C(c3ccc4ccncc4c3)=CC[C@@H]12 [Compound 1, (3S,8R,9S,10R,13S,14S)-17-(isoquinolin-7-yl)-10,13-dimethyl-2,3,4,7,8,9,10,11,12,13,14,15-dodecahydro-1H-cyclopenta[a]phenanthren-3-ol]
Second: C[C@]12CC[C@H](O)CC1=CC[C@@H]1[C@@H]2CC[C@]2(C)C(c3ccc4cnncc4c3)=CC[C@@H]12 [Compound 3]
The IC50 of the first is lower: 101 to 200 nM for the first, greater than 6000 nM for the second. The first is the more potent here.

First: C[C@]12CC[C@H](O)C[C@@H]1CC[C@@H]1[C@@H]2CC[C@]2(C)C(c3ccc4ccncc4c3)=CC[C@@H]12 [Compound 2]
Second: CN(C)[C@@H]1CC[C@@]2(C)[C@@H](CC[C@@H]3[C@@H]2CC[C@]2(C)C(c4ccc5ccncc5c4)=CC[C@@H]32)C1 [Compound 24]
The IC50 of the first is higher: 701 to 2000 nM for the first, 201 to 300 nM for the second. The second is the more potent here.

First: C[C@]12CC[C@H](O)CC1=CC[C@@H]1[C@@H]2CC[C@]2(C)C(c3ccc4nc(N)ncc4c3)=CC[C@@H]12 [Compound 4]
Second: C[C@]12CC[C@H](O)CC1=CC[C@@H]1[C@@H]2CC[C@]2(C)C(c3ccc4[nH]ncc4c3)=CC[C@@H]12 [Compound 6]
The IC50 of the first is lower: 2000 to 6000 nM for the first, greater than 6000 nM for the second. The first is the more potent here.

`C[C@]12CC[C@H](O)CC1=CC[C@@H]1[C@@H]2CC[C@]2(C)C(c3ccc4cn[nH]c4c3)=CC[C@@H]12` [Compound 7] and `C[C@]12CC[C@H]3[C@@H](CC=C4C[C@@H](O)CC[C@@]43C)[C@@H]1CC[C@@H]2c1ccc2cn[nH]c2c1` [Compound 13] cannot be ordered by IC50: greater than 6000 nM for the first, greater than 6000 nM for the second.

Compared with `C[C@]12CC[C@H](O)C[C@@H]1CC[C@@H]1[C@@H]2CC[C@]2(C)[C@@H](c3ccc4ccncc4c3)CC[C@@H]12` [Compound 8b], `CN(C)[C@H]1CC[C@@]2(C)[C@@H](CC[C@@H]3[C@@H]2CC[C@]2(C)[C@@H](c4ccc5ccncc5c4)CC[C@@H]32)C1` [Compound 23, (3S,8R,9S,10S,13S,14S,17S)-(isoquinolin-7-yl)-N,N,10,13-tetramethylhexadecahydro-1H-cyclopenta[a]phenanthren-3-amine] is lower in IC50: 201 to 300 nM for the first, less than 100 nM for the second. The second is the more potent here.

Compared with `C[C@]12CC[C@H]3[C@@H](CC=C4C[C@@H](O)CC[C@@]43C)[C@@H]1CC[C@@H]2c1ccc2cnncc2c1` [Compound 9], `C[C@]12CC[C@H]3[C@@H](CC=C4C[C@@H](O)CC[C@@]43C)[C@@H]1CC[C@@H]2c1ccc2cnccc2c1` [Compound 14] is lower in IC50: greater than 6000 nM for the first, 2000 to 6000 nM for the second.

Compared with `C[C@]12CC[C@H]3[C@@H](CC=C4C[C@@H](O)CC[C@@]43C)[C@@H]1CC[C@@H]2c1ccc2nc(N)ncc2c1` [Compound 10], `C[C@]12CC[C@H]3[C@@H](CC=C4C[C@@H](O)CC[C@@]43C)[C@@H]1CC[C@@H]2c1ccc2[nH]ncc2c1` [Compound 12] is higher in IC50: 101 to 200 nM for the first, greater than 6000 nM for the second. The first is the more potent here.

Compared with `C[C@]12CC[C@H]3[C@@H](CC=C4C[C@@H](O)CC[C@@]43C)[C@@H]1CC[C@@H]2c1ccc2c(N)n[nH]c2c1` [Compound 11], `CN(C)[C@@H]1CC[C@@]2(C)[C@@H](CC[C@@H]3[C@@H]2CC[C@]2(C)[C@@H](c4ccc5ccncc5c4)CC[C@@H]32)C1` [Compound 25] is lower in IC50: 301 to 700 nM for the first, less than 100 nM for the second. The second is the more potent here.

`C[C@]12CC[C@H](n3ccnn3)C[C@@H]1CC[C@@H]1[C@@H]2CC[C@]2(C)[C@@H](c3ccc4ccncc4c3)CC[C@@H]12` [Compound 39, 7-((3S,8R,9S,10S,13S,14S,17S)-10,13-dimethyl-3-(1H-1,2,3-triazol-1-yl)hexadecahydro-1H-cyclopenta[a]phenanthren-17-yl)isoquinoline] and `CC(=O)N(C)[C@H]1CC[C@@]2(C)[C@@H](CC[C@@H]3[C@@H]2CC[C@]2(C)[C@@H](c4ccc5ccncc5c4)CC[C@@H]32)C1` [Compound 47, N-((3S,8R,10S,13S,14S,17S)-17-(isoquinolin-7-yl)-10,13-dimethylhexadecahydro-1H-cyclopenta[a]phenanthren-3-yl)-N-methylacetamide] cannot be ordered by IC50: less than 100 nM for the first, less than 100 nM for the second.

Same assay, conditions: bifunctional compounds; displacing the Tracer from the target kinase; read-out: Enzyme IC50

`CN(C(=O)CCOCCOCCOCCOCCNc1cccc2c1C(=O)N(C1CCC(=O)NC1=O)C2=O)[C@H]1CC[C@]2(C)C3CC[C@]4(C)[C@@H](c5ccc6ccncc6c5)CC[C@H]4C3CC[C@H]2C1` (stereo partly drawn) [Compound I-1, 1-((2-(2,6-dioxopiperidin-3-yl)-1,3-dioxoisoindolin-4-yl)amino)-N-((3S,5S,1&S,13S,14S,17S)-17-(isoquinolin-7-yl)-10,13-dimethylhexadecahydro-1H-cyclopenta[a]phenanthren-3-yl)-N-methyl-3,6,9,12-tetraoxapentadecan-15-amide] and `CN(C(=O)CCOCCOCCNc1cccc2c1C(=O)N(C1CCC(=O)NC1=O)C2=O)[C@H]1CC[C@]2(C)C3CC[C@]4(C)[C@@H](c5ccc6ccncc6c5)CC[C@H]4C3CC[C@H]2C1` (stereo partly drawn) [Compound I-2, 3-(2-(2-((2-(2,6-dioxopiperidin-3-yl)-1,3-dioxoisoindolin-4-yl)amino)ethoxy)ethoxy)-N-((3S,10S,17S)-17-(isoquinolin-7-yl)-10,13-dimethylhexadecahydro-1H-cyclopenta[a]phenanthren-3-yl)-N-methylpropanamide] fall in the same range of IC50: 101 to 200 nM for the first, 101 to 200 nM for the second.

First: CN(C(=O)CCOCCOCCNc1cccc2c1C(=O)N(C1CCC(=O)NC1=O)C2=O)[C@H]1CC[C@@]2(C)C(CCC3C4CC[C@H](c5ccc6ccncc6c5)C4(C)CCC32)C1 (stereo partly drawn) [Compound I-3, 3-(2-(2-((2-(2,6-dioxopiperidin-3-yl)-1,3-dioxoisoindolin-4-yl)amino)ethoxy)ethoxy)-N-((3S,10S,17S)-17-(isoquinolin-7-yl)-10,13-dimethylhexadecahydro-1H-cyclopenta[a]phenanthren-3-yl)-N-methylpropanamide]
Second: CN1C(=O)CCC(N2C(=O)c3cccc(NCCOCCOCCOCCOCCC(=O)N(C)[C@H]4CC[C@]5(C)C6CC[C@]7(C)[C@@H](c8ccc9ccncc9c8)CC[C@H]7C6CC[C@H]5C4)c3C2=O)C1=O (stereo partly drawn) [Compound I-5, N-((3S,5S,10S,13S,14S,17S)-17-(isoquinolin-7-yl)-10,13-dimethylhexadecahydro-1H-cyclopenta[a]phenanthren-3-yl)-N-methyl--((2-(1-methyl-2,6-dioxopiperidin-3-yl)-1,3-dioxoisoindolin-4-yl)amino)-3,6,9,12-tetraoxapentadecan-15-amide]
The IC50 of the first is lower: 201 to 300 nM for the first, 301 to 700 nM for the second. The first is the more potent here.

Tested on: pS727-STAT1 (CDK8 substrate) in HepG2 cells
Test: Western blot of S727-STAT1 phosphorylation in IFNγ-treated HepG2 cells
Assay type: cell-based
Settings: 18 h with IFNγ, Compound 33 at 0.5, 1, 5 μM, DCA at 0.1, 1 μM
Description: FIG. 4 is a western blot illustrating inhibition of phosphorylation of S727-STAT1, a known CDK8 substrate, to form pS727-STAT1. pS727-STAT1 and total STAT1 were from HepG2 cells independently treated for 18 h with interferon gamma (IFNγ) and 0.5 μM, 1 μM, or 5 μM Compound 33, or with IFNγ and 0.1 μM or 1 μM dehydrocortistatin A (“DCA”).

For `CN(C)[C@H]1CC[C@@]2(C)C(=CCC3[C@@H]4CC[C@H](c5ccc6ccncc6c5)[C@@]4(C)CC[C@@H]32)C1` (stereo in doubt) [Compound 33, (3S,8R,9S,10R,13S,14S)-17-(isoquinolin-7-yl)-N,N,10,13-tetramethyl-2,3,4,7,8,9,10,11,12,13,14,15,16,17-tetradecahydro-1H-cyclopenta[a]phenanthren-3-amine], the “inhibition of S727 phosphorylation (pS727-STAT1 vs total STAT1, western blot)” value was “dose-dependent inhibition”.
With `CN(C)[C@H]1C[C@@]23CC[C@@]4(O2)C(=CC[C@]2(C)C(c5ccc6ccncc6c5)=CC[C@H]24)C=C3[C@@H](O)[C@@H]1O` [DCA, dehydrocortistatin A, reference compound] the “inhibition of S727 phosphorylation (pS727-STAT1 vs total STAT1, western blot)” value was “dose-dependent inhibition”.

Target: T1, CDK8
Test: not given
Settings: cited from earlier work
Target sequence in this assay (P49336 whole entry, looked up, species assumed): as the sequence (P49336 whole entry, looked up) above
Target sequence in this assay (P24863 whole entry partner, looked up, species assumed): as the sequence (P24863 whole entry partner, looked up) above

For `CN(C)[C@H]1C[C@@]23CC[C@@]4(O2)C(=CC[C@]2(C)C(c5ccc6ccncc6c5)=CC[C@H]24)C=C3[C@@H](O)[C@@H]1O` [DCA, dehydrocortistatin A, reference compound], the IC50 is listed as 17 nM.
